Where a SMILES comes first, the peptide text is derived from it. Bridges are numbered along the chain shown (N, C = ends). [ ]: non-standard residue; d: D form. Aoc = NCCCCCCCC(=O)O; Ava = NCCCCC(=O)O
biological target: Endothelin A receptor (Oryctolagus cuniculus); assay: Binding affinity against Endothelin A receptor in rabbit renal artery vascular smooth muscle membrane (ET-A)

Row | SMILES | IC50
1 | CC[C@H](C)[C@H](NC(=O)[C@H](CC(=O)O)NC(=O)[C@H](CC(C)C)NC(=O)[C@H](Cc1cnc[nH]1)NC(=O)[C@@H]1CSSC[C@H](N)C(=O)N[C@@H](CO)C(=O)NCCCCCCCC(=O)N[C@@H](C(C)C)C(=O)N[C@@H](Cc2ccc(O)cc2)C(=O)N[C@@H](Cc2ccccc2)C(=O)N1)C(=O)N[C@H](C(=O)N[C@@H](Cc1c[nH]c2ccccc12)C(=O)O)[C@@H](C)CC [Trp-Ile-Ile-Asp-Leu-Hisc(Cys-Ser-Aoa-Val-Tyr-Phe-Cys)] (H-CS[Aoc]VYFCHLDIIW-OH; disulfide 1-7) | 1800 nM
2 | CC[C@H](C)[C@H](NC(=O)[C@H](CC(=O)O)NC(=O)[C@H](CC(C)C)NC(=O)[C@H](Cc1c[nH]cn1)NC(=O)[C@@H]1CSSC[C@H](N)C(=O)N[C@@H](CO)C(=O)NCCCCC(=O)N[C@@H](C(C)C)C(=O)N[C@@H](Cc2ccc(O)cc2)C(=O)N[C@@H](Cc2ccccc2)C(=O)N1)C(=O)N[C@H](C(=O)N[C@@H](Cc1c[nH]c2ccccc12)C(=O)O)[C@@H](C)CC [Trp-Ile-Ile-Asp-Leu-Hisc(Cys-Ser-Apa-Val-Tyr-Phe-Cys)] (H-CS[Ava]VYFCHLDIIW-OH; disulfide 1-7) | 2500 nM
3 | CC[C@H](C)[C@H](NC(=O)[C@H](CC(=O)O)NC(=O)[C@H](CC(C)C)NC(=O)[C@H](Cc1c[nH]cn1)NC(=O)[C@@H]1CSSC[C@H](N)C(=O)N[C@@H](CO)C(=O)N[C@@H](CO)C(=O)N[C@@H](C(C)C)C(=O)N[C@@H](Cc2ccc(O)cc2)C(=O)N[C@@H](Cc2ccccc2)C(=O)N1)C(=O)N[C@H](C(=O)N[C@@H](Cc1c[nH]c2ccccc12)C(=O)O)[C@@H](C)CC [Trp-Ile-Ile-Asp-Leu-Hisc(Cys-Ser-Ser-Val-Tyr-Phe-Cys)] (H-CSSVYFCHLDIIW-OH; disulfide 1-7) | 2000 nM
4 | CC[C@H](C)[C@H](NC(=O)[C@H](CC(=O)O)NC(=O)[C@H](CC(C)C)NC(=O)[C@H](Cc1c[nH]cn1)NC(=O)[C@@H]1CSSC[C@H](N)C(=O)N[C@@H](CO)C(=O)N[C@@H](C(C)C)C(=O)N[C@@H](Cc2ccc(O)cc2)C(=O)N[C@@H](Cc2ccccc2)C(=O)N1)C(=O)N[C@H](C(=O)N[C@@H](Cc1c[nH]c2ccccc12)C(=O)O)[C@@H](C)CC [Trp-Ile-Ile-Asp-Leu-Hisc(Cys-Ser-Val-Tyr-Phe-Cys)] (H-CSVYFCHLDIIW-OH; disulfide 1-6) | 3800 nM
